Assay results published in patent publication US10696615B2, “Prenylated hydroxystilbenes” (The University of Sydney, priority 2011, dated 2020).

Legend:
Assay type in all cases: cell-based, human
SNB-19 = test: NCI in vitro cancer screen, CNS Cancer; settings: SNB-19
RXF-393 = test: NCI in vitro cancer screen, Renal Cancer; settings: RXF-393
ACHN = test: NCI in vitro cancer screen, Renal Cancer
OVCAR-3 = test: NCI in vitro cancer screen, Ovarian Cancer; settings: OVCAR-3
SK-MEL-28 = test: NCI in vitro cancer screen, Melanoma; settings: SK-MEL-28
NCI-H23 = test: NCI in vitro cancer screen, Non-Small Cell Lung Cancer; settings: NCI-H23
SW-620 = test: NCI in vitro cancer screen, Colon Cancer; settings: SW-620
SF-295 = test: NCI in vitro cancer screen, CNS Cancer; settings: SF-295
K-562 = test: NCI in vitro cancer screen, Leukemia; settings: K-562
HT29 = test: NCI in vitro cancer screen, Colon Cancer; settings: HT29
UACC-62 = test: NCI in vitro cancer screen, Melanoma; settings: UACC-62
MDA-MB-468 = test: NCI in vitro cancer screen, Breast Cancer; settings: MDA-MB-468
NCI-H322M = test: NCI in vitro cancer screen, Non-Small Cell Lung Cancer
SK-MEL-2 = test: NCI in vitro cancer screen, Melanoma; settings: SK-MEL-2
TK-10 = test: NCI in vitro cancer screen, Renal Cancer; settings: TK-10
KM12 = test: NCI in vitro cancer screen, Colon Cancer; settings: KM12
SNB-75 = test: NCI in vitro cancer screen, CNS Cancer; settings: SNB-75
NCI-H460 = test: NCI in vitro cancer screen, Non-Small Cell Lung Cancer; settings: NCI-H460
UO-31 = test: NCI in vitro cancer screen, Renal Cancer; settings: UO-31
OVCAR-5 = test: NCI in vitro cancer screen, Ovarian Cancer; settings: OVCAR-5
DU-145 = test: NCI in vitro cancer screen, Prostate Cancer; settings: DU-145
A549/ATCC = test: NCI in vitro cancer screen, Non-Small Cell Lung Cancer
OVCAR-8 = test: NCI in vitro cancer screen, Ovarian Cancer; settings: OVCAR-8
U251 = test: NCI in vitro cancer screen, CNS Cancer; settings: U251
SK-OV-3 = test: NCI in vitro cancer screen, Ovarian Cancer; settings: SK-OV-3
MDA-MB-435 = test: NCI in vitro cancer screen, Melanoma; settings: MDA-MB-435
PC-3 = test: NCI in vitro cancer screen, Prostate Cancer; settings: PC-3
SK-MEL-5 = test: NCI in vitro cancer screen, Melanoma; settings: SK-MEL-5
CCRF-CEM = test: NCI in vitro cancer screen, Leukemia
T-47D = test: NCI in vitro cancer screen, Breast Cancer
MCF7 = test: NCI in vitro cancer screen, Breast Cancer; settings: MCF7
[1] = Homo sapiens, read-out: LC50 (the source's name)

COc1cc(/C=C/c2cc(O)cc(OCC=C(C)C)c2)ccc1O [USYDS2, (E)-3-(3-methyl-2-butenyloxy)-4′,5-dihydroxy-3′-methoxystilbene]
GI50 (SNB-19; Homo sapiens): 5.02 µM
CC50 (SNB-19; [1]): 53.6 µM
TGI (SNB-19): 20.4 µM
GI50 (RXF-393; Homo sapiens): 1.35 µM
CC50 (RXF-393; [1]): 23.6 µM
TGI (RXF-393): 5.46 µM
TGI (ACHN): 17.5 µM
GI50 (ACHN; Homo sapiens): 3.76 µM
CC50 (ACHN; [1]): 52.1 µM
GI50 (OVCAR-3; Homo sapiens): 3.02 µM
CC50 (OVCAR-3; [1]): 36.1 µM
TGI (OVCAR-3): 10.7 µM
GI50 (SK-MEL-28; Homo sapiens): 5.04 µM
LC50 (SK-MEL-28; Homo sapiens): 46.7 µM
TGI (SK-MEL-28): 19.4 µM
GI50 (NCI-H23; Homo sapiens): 2.89 µM
LC50 (NCI-H23; Homo sapiens): > 100 µM
TGI (NCI-H23): 23.6 µM
GI50 (SW-620; Homo sapiens): 0.53 µM
CC50 (SW-620; [1]): 40.7 µM
TGI (SW-620): 14.0 µM
GI50 (SF-295; Homo sapiens): 3.94 µM
CC50 (SF-295; [1]): 49.2 µM
TGI (SF-295): 14.7 µM
GI50 (K-562; Homo sapiens, K562): 0.48 µM
CC50 (K-562; Homo sapiens, K562, read-out: LC50 (the source's name)): > 100 µM
TGI (K-562): >100 µM
TGI (HT29): 32.2 µM
GI50 (HT29; Homo sapiens, HT-29): 17.4 µM
CC50 (HT29; Homo sapiens, HT-29, read-out: LC50 (the source's name)): 59.6 µM
GI50 (UACC-62; Homo sapiens): 3.73 µM
CC50 (UACC-62; [1]): 44.6 µM
TGI (UACC-62): 15.9 µM
GI50 (MDA-MB-468; Homo sapiens): 2.72 µM
CC50 (MDA-MB-468; [1]): 36.8 µM
TGI (MDA-MB-468): 9.41 µM
TGI (NCI-H322M): 22.7 µM
GI50 (NCI-H322M; Homo sapiens): 9.64 µM
LC50 (50% lethal concentration) (NCI-H322M; Homo sapiens): 52.3 µM
GI50 (SK-MEL-2; Homo sapiens): 1.25 µM
LC50 (SK-MEL-2; Homo sapiens): 41.6 µM
TGI (SK-MEL-2): 9.59 µM
GI50 (TK-10; Homo sapiens): 4.69 µM
LC50 (TK-10; Homo sapiens): 40.1 µM
TGI (TK-10): 14.3 µM
GI50 (KM12; Homo sapiens): 2.09 µM
CC50 (KM12; [1]): 45 µM
TGI (KM12): 11.7 µM
GI50 (SNB-75; Homo sapiens): 2.14 µM
CC50 (SNB-75; [1]): 55.8 µM
TGI (SNB-75): 10.3 µM
GI50 (NCI-H460; Homo sapiens): 2.47 µM
CC50 (NCI-H460; [1]): 58.7 µM
TGI (NCI-H460): 10.9 µM
GI50 (UO-31; Homo sapiens): 2.6 µM
CC50 (UO-31; [1]): 48.9 µM
TGI (UO-31): 16.9 µM
GI50 (OVCAR-5; Homo sapiens): 10.1 µM
CC50 (OVCAR-5; [1]): 60.9 µM
TGI (OVCAR-5): 24.8 µM
TGI (DU-145): 12.5 µM
GI50 (DU-145; Homo sapiens): 3.05 µM
CC50 (DU-145; [1]): 37.8 µM
TGI (A549/ATCC): 13.0 µM
GI50 (A549/ATCC; Homo sapiens): 3.28 µM
CC50 (A549/ATCC; [1]): 42.1 µM
GI50 (OVCAR-8; Homo sapiens): 2.8 µM
CC50 (OVCAR-8; [1]): 44.6 µM
TGI (OVCAR-8): 14.8 µM
GI50 (U251; Homo sapiens, U-251): 2.96 µM
CC50 (U251; Homo sapiens, U-251, read-out: LC50 (the source's name)): 41 µM
TGI (U251): 14.7 µM
GI50 (SK-OV-3; Homo sapiens): 3.69 µM
CC50 (SK-OV-3; [1]): 38.9 µM
TGI (SK-OV-3): 14.9 µM
GI50 (MDA-MB-435; Homo sapiens): 0.34 µM
CC50 (MDA-MB-435; [1]): 41.3 µM
TGI (MDA-MB-435): 11.0 µM
GI50 (PC-3; Homo sapiens): 3.84 µM
CC50 (PC-3; [1]): 65.8 µM
TGI (PC-3): 18.7 µM
GI50 (SK-MEL-5; Homo sapiens): 1.58 µM
CC50 (SK-MEL-5; [1]): 34.3 µM
TGI (SK-MEL-5): 11.5 µM
TGI (CCRF-CEM): >100 µM
GI50 (CCRF-CEM; Homo sapiens): 5.06 µM
CC50 (CCRF-CEM; [1]): > 100 µM
TGI (T-47D): 33.6 µM
GI50 (T-47D; Homo sapiens, T47D): 5.66 µM
CC50 (T-47D; Homo sapiens, T47D, read-out: LC50 (the source's name)): > 100 µM
GI50 (MCF7; Homo sapiens): 1.24 µM
CC50 (MCF7; [1]): 41 µM
TGI (MCF7): 15.0 µM
